In one series the target is integrase (Human immunodeficiency virus type 1 group M subtype B, UniProt P04585). The experiment in a line: Integrase inhibition assay (microtiter plate strand transfer, substrate DNA/target DNA, anti-digoxigenin ELISA). The series is classed as biochemical. The settings on record: concentration of the compound at percent inhibition 50%, 30° C. for 1 hour, OD at 405 nm. As for the experimental part:
The inhibitory activities against integrase of the compounds in the present invention have been determined by the assay described below.
(1) Preparation of DNA Solutions.
Substrate DNA and target DNA, which sequences were indicated below, were synthesized by Amersham Pharmacia Biotech and dissolved in KTE buffer (composition: 100 mM KCl, 1 mM EDTA, 10 mM Tris-HCl (pH 7.6)) at concentration of 2 pmol/μl and 0.5 pmol/μl, respectively. The DNA solutions were annealed with each complement by slowly cooling after heating.
(2) Calculations of the Percent Inhibitions (the IC50 Values of Test Compounds)
Streptavidin, obtained from Vector Laboratories, was dissolved in 0.1 M carbonate buffer (composition: 90 mM Na2CO3, 10 mM NaHCO3) at concentration of 40 µg/ml. After coating each well of microtiter plates (obtained from NUNC) with 50 μL of the above solution at 4° C. over night, each well was washed twice with PBS (composition: 13.7 mM NaCl, 0.27 mM KCl, 0.43 mM Na2HPO4, 0.14 mM KH2PO4) and blocked with 300 μl of 1% skim milk in PBS for 30 min. Additionally, each well was washed twice with PBS and added 50 μl of substrate DNA solution (0.04 pmol/μl) diluted to one fiftieth with NTE buffer (composition: 1M NaCl, 10 mM Tris-HCl (pH8.0), 1 mM EDTA). The microtiter plates were kept at room temperature for 30 min. Then, each well was washed twice with PBS and once with H2O.
Subsequently, in the each well prepared above were added 45 μl of the reaction buffer prepared from 12 μl of the buffer (composition: 150 mM MOPS (pH 7.2), 75 mM MnCl2, 50 mM 2-mercaptoethanol, 25% glycerol, 500 μg/ml bovine serum albumin-fraction V), 1 μl of target DNA (5 pmol/μl), and 32 μl of the distilled water. Additionally, 6 μl of either a test compound in DMSO or DMSO for positive control (PC) was mixed with the above reaction buffer, then 9 μl of an integrase solution (30 pmol) was added and mixed well. In the well of negative control (NC) was added 9 μl of the integrase dilution buffer (composition: Hepes (pH7.6), 400 mM potassium glutamate, 1 mM EDTA, 0.1% NP-40, 20% glycerol, 1 mM DTT, 4M urea).
The microtiter plates were incubated at 30° C. for 1 hour. The reaction solution was removed and each well was washed twice with PBS. Subsequently, each well of the microtiter plates was filled with 100 μl of anti-digoxigenin antibody labeled with alkaline phosphatase (Sheep Fab fragment: obtained from Boehringer) and incubated at 30° C. for 1 hour. Then, each well was washed twice with 0.05% Tween20 in PBS and once with PBS. Next, 150 μl of the Alkaline phosphatase reaction buffer (composition: 10 mM p-Nitrophenylphosphate (obtained from Vector Laboratories), 5 mM MgCl2, 100 mM NaCl, 100 mM Tris-HCl (pH 9.5)) was added in each well. The microtiter plates were incubated at 30° C. for 2 hours. The optical density (OD) at 405 nm of each well was measured and the percent inhibition was determined by the following expression. The percent inhibition (%)=100[1−{(C abs.−NC abs.)/(PC abs.−NC abs.)}] • C abs.; the OD of the well of the • NC abs.: the OD of the negative control (NC) • PC abs.: the OD of the positive control (PC)
When the percent inhibition (%) is X % at the concentration of x μg/ml and the percent inhibition (%) is Y % at the concentration of y μg/ml, one of which is more than 50% and the other is less than 50%, IC50 can be determined by the following expression. IC50(μg/ml)=x−{(X−50),(x−y)/(X−Y)}
Compound No. in the Table 1 is the same as compound No. of the above example.

Read-outs that look alike come from different tables or passages of the source.

One may read the IC50 as the concentration needed to halve the response being measured. Molecule “3-hydroxy-1-isopropyl-4-(6-phenethylpyrimidine-4-yl)-1,5-dihydropyrrole-2-one [Compound H-7]” yielded an IC50 against integrase of 0.68 µg/mL.
For orientation: melting point means the temperature of the solid-liquid transition. Regarding `CC(C)N1CC(C(=O)c2ccc(Cc3ccc(F)cc3)o2)=C(O)C1=O` [Compound A-7, 4-[5-(4-Fluorobenzyl)furan-2-carbonyl]-3-hydroxyl-1-isopropyl-1,5-dihydropyrrole-2-one], the melting point fell in the range of 155 to 157 °C. Also, the IC50 on integrase (read-out: IC50 (converted)) is 2.21 µM.
The corresponding values for `CN1CC(C(=O)c2cccc(Cc3ccc(F)cc3)c2)=C(O)C1=O` [Compound A-12-a, 4-[3-(4-Fluorobenzyl)benzoyl]-3-hydroxy-1-methyl-1,5-dihydropyrrole-2-one] are 135 to 137 °C and 1.01 µM.
In turn, `O=C(C1=C(O)C(=O)N(C2CC2)C1)c1ccc(Cc2ccc(F)cc2)o1` [Compound A-17, 1-Cyclopropyl-4-[5-(4-fluorobenzyl)furan-2-carbonyl]-3-hydroxy-1,5-dihydropyrrole-2-one] returned a melting point of 158 to 159 °C. In addition, the IC50 on integrase (read-out: IC50 (converted)) is 2.34 µM.
As to `CCCCN1CC(C(=O)c2ccc(Cc3ccc(F)cc3)o2)=C(O)C1=O` [Compound A-17-c, 1-Butyl-4-[5-(4-fluorobenzyl)furan-2-carbonyl]-3-hydroxy-1,5-dihydropyrrole-2-one], the IC50 at integrase (read-out: IC50 (converted)) is 2.63 µM.
Take `CN1CC(C(=O)c2occc2Cc2ccc(F)cc2)=C(O)C1=O` [Compound A-50, 4-[3-(4-Fluorobenzyl)furan-2-carbonyl]-3-hydroxy-1-methyl-1,5-dihydropyrrole-2-one]: the melting point lay in the range of 208 to 210 °C. Moreover, the IC50 at integrase (read-out: IC50 (converted)) was 0.507 µM.
As to `CC(C)Oc1cc(F)ccc1Cc1ccc(C(=O)C2=C(O)C(=O)N(C)C2)o1` [Compound A-141-k, 4-[5-(4-Fluoro-2-isopropoxybenzyl)furan-2-carbonyl]-3-hydroxy-1-methyl-1,5-dihydropyrrole-2-one], the melting point was in the range of 126 to 129 °C. Besides, at integrase (read-out: IC50 (converted)), the IC50 was 1.82 µM.
`COC(C)(C)c1cc(Cc2ccc(F)cc2)c(C(=O)C2=C(O)C(=O)N(C)C2)o1` [Compound A-158, 4-[3-(4-Fluorobenzyl)-5-(1-methoxy-1-methylethyl)furan-2-carbonyl]-3-hydroxy-1-methyl-1,5-dihydropyrrole-2-one]: the melting point fell in the range of 144 to 145 °C. Also, the IC50 at integrase (read-out: IC50 (converted)) is 1.73 µM.
The corresponding values for `CN1CC(c2cc(CCc3ccccc3)ncn2)=C(O)C1=O` [Compound B-6-a, 3-Hydroxy-1-methyl-4-(6-phenethylpyrimidine-4-yl)-1,5-dihydropyrrole-2-one] are 211 to 213 °C and 5.42 µM.
As for `CN1CC(c2cc(OCc3ccc(F)cc3)ncn2)=C(O)C1=O` [Compound B-12-b, 4-[6-(4-Fluorobenzyloxyl)pyrimidine-4-yl]-3-hydroxy-1-methyl-1,5-dihydropyrrole-2-one], the IC50 on integrase (read-out: IC50 (converted)) is 0.666 µM.
Same read-out and setting: to `O=c1c(O)c(-c2nnc(Cc3ccc(F)cc3)o2)oc2ccccc12` [Compound C-26, 2-[5-(4-fluorobenzyl)-[1,3,4]-oxadiazole-2-yl]-3-hydroxy-4H-1-benzopyrane-4-one] belongs 1.06 µM; to `Cc1nc(=O)c(O)c(-c2ccc(Cc3ccc(F)cc3)cn2)[nH]1` [Compound G-7, 6-[5-(4-fluorobenzyl)pyridine-2-yl]-5-hydroxy-2-methyl-1H-pyrimidine-4-one], 1.54 µM; to `CCN1CCC(C(=O)c2ccc(Cc3ccc(F)cc3)o2)=C(O)C1=O` [Compound I-4, 1-ethyl-4-[5-(4-fluorobenzyl)furan-2-carbonyl]-3-hydroxy-5,6-dihydro-1H-pyridine-2-one], 1.46 µM.
With `O=C(c1ccc(Cc2ccc(F)cc2)o1)c1[nH]ccc(=O)c1O` [Compound L-4, 2-[5-(4-fluorobenzyl)furan-2-carbonyl]-3-hydroxy-1H-pyridine-4-one], on integrase (read-out: IC50 (converted)), the IC50 is 1.56 µM.

These data come from patent US9572813B2, “Antiviral agent” (SHIONOGI & CO., LTD., priority 2001, dated 2017).
